How the values were obtained:
SW620 cells = assay: Colony formation assay; assay type: cell-based, human; conditions: SW620 cells treated 11 days
Protocol: The in vitro potency of the compounds was measured by colony formation assays. SW620 cells in logarithmic growth phase are plated at 800 cells per well in 6-well plates (Solmeglas 13118) in RPMI media (Sigma-Aldrich R6504) supplemented with 10% foetal bovine serum (Sigma-Aldrich F7524), Penicillin/Streptomycin solution diluted 1:100 (Gibco 15070-063), and fungizone (Gibco, 15290-018), and allowed to adhere overnight at 37° C. in 5% CO2. Compounds are then added to the cell media from a final concentration of 10 μM in 10-fold serial dilutions and the cells are incubated at 37° C. in 5% CO2. Every three days the medium is changed by fresh medium and compounds are added again. After 11 days, colonies are washed with PBS and fixed in 0.5% crystal violet (Sigma-Aldrich Ref. V5265), 6% glutaraldehide (Sigma-Aldrich Ref. G5882) for 30 minutes. After extensive washing, colonies are dissolved in 2 ml of 10% glacial acetic acid (Sigma-Aldrich Ref. 537020) and absorbance at 590 nm is measured in the Victor 1420 Multilabel Counter (Perkin Elmer). The absorbance in cells treated with DMSO is taken as hundred percent of proliferation. The percentage of proliferation is finally plotted against concentration for each compound and EC50s for colony formation inhibition are calculated using ActivityBase from IDBS.

HCT116 = assay: Combination assay, HCT116; assay type: cell-based
Method in brief: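 Cells treated with example compounds combined with chemotherapeutic agents, proliferation read by CellTiter-Glo. Combination index from the Chou–Talalay method (CI <0.8 synergy, 0.8–1.2 additivity, >1.2 antagonism); EC50 of the combination also derived alongside single-agent EC50s.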

A549 = assay: Combination assay, A549; assay type: cell-based
Protocol: (§1) The combination index (CI) of combinations of certain example compounds and various chemotherapeutic agents in the CellTitetI-Glo® in vitro cell proliferation assays may be tested. A combination index score is calculated by the Chou and Talalay method (CalcuSyn software, Biosoft). The strength of synergy is scored using the ranking system Chou and Talalay: CI less than 0.8 indicates synergy, CI between 0.8 and 1.2 indicates additivity and CI greater than 1.2 indicates antagonism.
The EC50 values of representative combinations are also calculated. The individually measured EC50 values of the chemotherapeutic agent and the example compounds are compared to the EC50 value of the combination. The cell lines are characterised by tumor type. Combination assays are performed as described in: “Pim 1 kinase inhibitor ETP-45299 suppresses cellular proliferation and synergizes with PI3K inhibition”. Blanco-Aparicio, Carmen; Collazo, Ana Maria Garcia; Oyarzabal, Julen; Leal, Juan F.; Albaran, Maria Isabel; Lima, Francisco Ramos; Pequeno, Belen; Ajenjo, Nuria; Becerra, Mercedes; Alfonso, Patricia; Reymundo, Maria Isabel; Palacios, Irene; Mateos, Genoveva; Quinones, Helena; Corrionero, Ana; Carnero, Amancio; Pevarello, Paolo; Lopez, Ana Rodriguez; Fominaya, Jesus; Pastor, Joaquin; Bischoff, James R. Cancer Letters (Shannon, Ireland) 2011, 300(2), 145-153

DU145 = assay: Combination assay, DU145; assay type: cell-based
Protocol: as §1
The EC50 values of representative combinations are also calculated. The individually measured EC50 values of the chemotherapeutic agent and the example compounds are compared to the EC50 value of the combination. The cell lines are characterised by tumor type. […] Blanco-Aparicio, Carmen; Collazo, Ana Maria Garcia; Oyarzabal, Julen; Leal, Juan F.; Albaran, Maria Isabel; Lima, Francisco Ramos; Pequeno, Belen; Ajenjo, Nuria; Becerra, Mercedes; Alfonso, Patricia; Reymundo, Maria Isabel; Palacios, Irene; Mateos, Genoveva; Quinones, Helena; Corrionero, Ana; Carnero, Amancio; Pevarello, Paolo; Lopez, Ana Rodriguez; Fominaya, Jesus; Pastor, Joaquin; Bischoff, James R. Cancer Letters (Shannon, Ireland) 2011, 300(2), 145-153

[1] = HCT116, combination with Alisertib
[2] = HCT116, combination with Crizotinib
[3] = A549, combination with Elesclomol
[4] = DU145, combination with Alisertib
[5] = DU145, combination with Crizotinib

In the case of `CCn1c(C(N)=O)cc2c1-c1ccncc1OC2(C)C` [Example 43], the EC50 (SW620 cells; Homo sapiens, SW-620, 264 h, read-out: mean EC50, colony forming assay) is reported as 0.051 ± 0.069 µM, the “effect in colony forming assay” value (SW620 cells) is reported as “dose-dependent effect” and the “Combination index (CI)” value (HCT116; [1]) is reported as 0.64. The Synergy (HCT116; [1]) was “++ (0.3 < CI < 0.7 (++))”, the “Combination index (CI)” value (HCT116; [2]) was 0.58 and the Synergy (HCT116; [2]) was “++ (0.3 < CI < 0.7 (++))”. For the same molecule, the “Combination index (CI)” value (HCT116; HCT116, combination with Taxol) was 0.63, the Synergy (HCT116; HCT116, combination with Taxol) was “++ (0.3 < CI < 0.7 (++))” and the GI50 (HCT116; Homo sapiens, HCT-116, HCT116, example compound alone, read-out: CDK8 inh GI50) was 5 µM. For the same molecule, the “Combination index (CI)” value (A549; [3]) was 0.63, the Synergy (A549; [3]) was “++ (0.3 < CI < 0.7 (++))” and the GI50 (A549; Homo sapiens, A549, example compound alone, read-out: CDK8 inh GI50) was 5 µM. For the same molecule, the “Combination index (CI)” value (DU145; [4]) was 0.65, the Synergy (DU145; [4]) was “++ (0.3 < CI < 0.7 (++))” and the “Combination index (CI)” value (DU145; [5]) was 0.44. For the same molecule, the Synergy (DU145; [5]) was “++ (0.3 < CI < 0.7 (++))”, the “Combination index (CI)” value (DU145; DU145, combination with Taxol) was 0.21 and the Synergy (DU145; DU145, combination with Taxol) was “+++ (0.1 < CI < 0.3 (+++))”. For the same molecule, the GI50 (DU145; Homo sapiens, DU-145, DU145, example compound alone, read-out: CDK8 inh GI50) was 5 µM.

From US10208056B2, “Condensed tricyclic compounds as protein kinase inhibitors” (FUNDACIÓN DEL SECTOR PÚBLICO ESTATAL CENTRO NACIONAL DE …, priority 2015, dated 2019)
